Values after ≈ are worked out from the molar mass of the structure shown.
Key:
Tubulin = experiment: Inhibition of tubulin polymerization (unknown origin); assay type: protein-complex assay, Homo sapiens
A549 [1] = experiment: Antiproliferative activity against human A549 cells assessed as reduction in cell growth incubated for 24 hrs by MTT assay; assay type: functional, cell-based; settings: A549, 24 h
A-375 = experiment: Antiproliferative activity against human A375 cells assessed as reduction in cell growth incubated for 24 hrs by MTT assay; assay type: functional, cell-based; settings: A-375, 24 h
BGC-823 = experiment: Antiproliferative activity against human BGC823 cells assessed as reduction in cell growth incubated for 24 hrs by MTT assay; assay type: functional, cell-based; settings: BGC-823, 24 h
MCF7 = experiment: Antiproliferative activity against human MCF7 cells assessed as reduction in cell growth; assay type: functional, cell-based
HeLa [2] = experiment: Antiproliferative activity against human HeLa cells assessed as reduction in cell growth; assay type: functional, cell-based
[3] = Antiproliferative activity against mouse EMT6/AR1 cells assessed as reduction in cell growth; assay type: functional, cell-based
MDA-MB-231 = experiment: Antiproliferative activity against human MDA-MB-231 cells assessed as reduction in cell growth; assay type: functional, cell-based
CA46 = experiment: Cytotoxicity against human CA46 cells assessed as inhibition of tubulin polymerization after 36 hrs; assay type: functional, cell-based; settings: CA46, 36 h
[4] = Antiproliferative activity against human […] cells assessed as reduction in cell growth incubated for 48 hrs by MTT assay; assay type: functional, cell-based
A549 [5] = experiment: Antiproliferative activity against human A549 cells assessed as reduction in cell growth incubated for 48 hrs by MTT assay; assay type: functional, cell-based; settings: A549, 48 h
HeLa [6] = experiment: Antiproliferative activity against human HeLa cells assessed as reduction in cell growth incubated for 48 hrs by MTT assay; assay type: functional, cell-based
K562 = experiment: Antiproliferative activity against human K562 cells assessed as reduction in cell growth incubated for 48 hrs by MTT assay; assay type: functional, cell-based; settings: K562, 48 h
[7] = Antiproliferative activity against human MCF cells assessed as reduction in cell growth incubated for 48 hrs by MTT assay; assay type: functional, cell-based
WiDr = experiment: Antiproliferative activity against human WiDr cells assessed as reduction in cell growth incubated for 48 hrs by MTT assay; assay type: functional, cell-based
P388 [8] = experiment: Antiproliferative activity against mouse P388 cells assessed as reduction in cell growth incubated for 48 hrs by MTT assay; assay type: functional, cell-based; settings: P388, 48 h
[9] = Cytotoxicity against mouse tsFT210 cells; assay type: functional
Bos taurus = species on record: Bos taurus; experiment: Inhibition of bovine brain microtubule assembly at 250 uM by turbidimetric assay relative to control
[10] = Antiproliferative activity against human MEL28 cells assessed as reduction in cell growth; assay type: functional, cell-based; settings: SK-MEL-28
A549 [11] = experiment: Antiproliferative activity against human A549 cells assessed as reduction in cell growth; assay type: functional, cell-based
HT-29 = experiment: Antiproliferative activity against human HT-29 cells assessed as reduction in cell growth; assay type: functional, cell-based
U-937 = experiment: Antiproliferative activity against human U937 cells assessed as reduction in cell growth; assay type: functional, cell-based
P388 [12] = experiment: Antiproliferative activity against mouse P388 cells assessed as reduction in cell growth; assay type: functional, cell-based
SKM-1 = experiment: Antiproliferative activity against human SKM1 cells assessed as reduction in cell growth; assay type: functional, cell-based
[13] = Potency index, ratio of paclitaxel IC50 to laulimalide IC50 for cytotoxicity against human SKVLB-1 cells; assay type: functional

For `CC(C)(C)c1[nH]cnc1/C=c1\[nH]c(=O)/c(=C/C(=O)c2ccccc2)[nH]c1=O`, the IC50 (Tubulin) was 1400 nM.
With `CC[C@@]1(C)Oc2cc(c([S+]([O-])CCCCCO)cc2O)[C@@H](O)[C@H](NC)C(=O)N[C@@H](C(C)C)C(=O)NC1C(=O)NCC(=O)O` (some centres undefined) the IC50 (A549 [1]) was 36500 nM and the IC50 (A-375) was 22500 nM.
`CC[C@@]1(C)Oc2cc(c([S+]([O-])C[C@@H](O)C[C@H](N)C(=O)O)cc2O)[C@@H](O)[C@H](NC)C(=O)N[C@@H](C)C(=O)NC1C(=O)NCC(=O)O` (some centres undefined) gave an IC50 (BGC-823) of 1030 nM.
`CC(C)(C)c1[nH]cnc1/C=c1\[nH]c(=O)/c(=C/c2cc(F)ccc2F)[nH]c1=O` showed an IC50 (Tubulin) of 2.6 nM.
Compound `COc1cc2cc(c1Cl)N(C)C(=O)C[C@H](OC(=O)C(C)C)[C@]1(C)O[C@@H]1[C@H](C)[C@@H]1C[C@@](O)(NC(=O)O1)[C@H](OC)/C=C/C=C(\C)C2` [ANSAMITOCIN P3] has an IC50 (MCF7) of 2.06 nM, an IC50 (HeLa [2]) of 5.06 nM and an IC50 [3] of 141 nM. The IC50 (MDA-MB-231) was 15.1 nM.
In the case of `COc1ccc(-c2oc3cc(O)c(OC)c(O)c3c(=O)c2OC)cc1O` [CENTAUREIDIN], the IC50 (CA46) is reported as 2000 nM.
Work on `C=CC(C)(C)c1[nH]cnc1/C=C1\NC(=O)[C@H](Cc2ccccc2)NC1=O` yielded an IC50 [4] of 180 to 330 nM, an IC50 (A549 [5]) of 180 to 330 nM and an IC50 (HeLa [6]) of 180 to 330 nM. It also gave an IC50 (K562) of 180 to 330 nM, an IC50 [7] of 180 to 330 nM and an IC50 (WiDr) of 180 to 330 nM. For the same compound, the IC50 (P388 [8]) was 180 to 330 nM.
Work on `CC(C)=CCc1[nH]c2ccccc2c1C[C@@H]1NC(=O)[C@@H]2CCCN2C1=O` [TRYPROSTATIN B] yielded an MIC [9] of 4.4 µM (≈ 1.55 µg/mL).
`COc1cc(/C=N/OC/C=C/C=C(\C)CCC(O)c2cccs2)cc(OC)c1OC` (centres undefined) gave an IC50 (MDA-MB-231) of 120 nM.
In the case of `COc1ccc2c(C[C@@H]3NC(=O)[C@@H]4CCCN4C3=O)c(CC=C(C)C)[nH]c2c1` [TRYPROSTATIN A], the MIC [9] is reported as 16.4 µM (≈ 6.26 µg/mL) and the inhibition (Bos taurus) is reported as 40%.
`C=CCC1(CC/C(C)=C/C=C/CC/C=C\[C@]2(C)CSC([C@@H]3C[C@@H]3C)=N2)OCCO1` showed an IC50 (MCF7) of 30 nM.
Work on `C=C1C[C@@H]2C/C=C/C(=O)C/C(C)=C\C=C\C(=O)O[C@H]([C@H](O)NC(=O)/C=C\C=C\C)C/C(C)=C/[C@H](C1)O2` [ZAMPANOLIDE] yielded an IC50 [10] of 1 to 5 ng/mL (≈ 2.02 to 10.1 nM), an IC50 (A549 [11]) of 1 to 5 ng/mL (≈ 2.02 to 10.1 nM) and an IC50 (HT-29) of 1 to 5 ng/mL (≈ 2.02 to 10.1 nM). For the same compound, the IC50 (U-937) was 2.9 nM, the IC50 (P388 [12]) was 1 to 5 ng/mL (≈ 2.02 to 10.1 nM) and the IC50 (SKM-1) was 1.1 nM.
In the case of `C=C1C[C@H](C)C[C@@H]2CC=C[C@@H](C/C=C\C(=O)O[C@H]([C@@H](O)/C=C/[C@@H]3CC(C)=CCO3)C[C@@H]3O[C@H]3[C@@H](O)C1)O2` [FIJIANOLIDE B], the “Ratio IC50” value [13] is reported as 100.

From ChEMBL document CHEMBL4385609, “Anti-tubulin agents of natural origin: Targeting taxol, vinca, and colchicine binding domains” (Eur J Med Chem, 2019)
